# Measurements from US9745289B2, “Aldosterone synthase inhibitors” (Boehringer Ingelheim International GmbH, priority 2014, dated 2017).
# Target: cortisol synthase (CYP11B1) (Macaca fascicularis, UniProt A0A2K5ULY1)
# Test: Inhibition of Cortisol Synthesis
# Type: biochemical, cynomolgus monkey
# Conditions: cynomolgus adrenal gland mitochondria; 150 units of CYP11B1, 11-deoxycortisol as substrate, cortisol measured as product
# Experimental: The aldosterone synthase and cortisol synthase inhibition assays employ cynomolgus adrenal gland mitochondria as the source of aldosterone synthase (CYP11B2) and cortisol synthase (CYP11B1). […] Activity of CYP11B2 and CYP11B1 in these preparations is defined as the amount of enzyme that generates 1 pmol of product in one hour under the conditions described.
# Assays are performed in 96-well format in a final volume of 60 μL/well, containing 100 mM potassium phosphate, pH 7.4, 1% (v/v) DMSO, and additionally, 2 μM of corticosterone and 50 units of CYP11B2 activity. Reactions are started by the addition of NADPH to 1 mM and allowed to proceed for 90 minutes at 37° C. Reactions are terminated by the addition of 60 μL of MeCN containing an internal standard for mass spectrometry. One hundred microliters are then transferred to a glass filter plate and centrifuged at 570×g for 5 minutes and the filtrate is collected. Reaction product aldosterone is quantified by mass spectrometry. To determine the assay blank value (0% activity), NADPH is omitted from some reactions.
# Dose dependent inhibition is quantified by the inclusion of compound at various concentrations. Maximum activity (100%) is defined by reactions containing NADPH, but without compound.
# Assays are performed as for aldosterone synthase except for the use of 150 units of CYP11B1, 11-deoxycortisol as substrate and cortisol measured as product.
row,SMILES,IC50 [µM]
1,"NC(=O)c1cccc2c1OCC(c1cncc(CC(=O)N3CCOCC3)c1)O2 (single isomer, unassigned) [Cpd 13A, 2-[5-(2-Morpholin-4-yl-2-oxo-ethyl)-pyridin-3-yl]-2,3-dihydro-benzo[1,4]dioxine-5-carboxylic acid amide]",> 100
2,"NC(=O)c1cccc2c1OCC(c1cncc(CC(=O)N3CCOCC3)c1)O2 (single isomer, unassigned) [Cpd 13B, 2-[5-(2-Morpholin-4-yl-2-oxo-ethyl)-pyridin-3-yl]-2,3-dihydro-benzo[1,4]dioxine-5-carboxylic acid amide]",66
3,"NC(=O)c1cccc2c1OCC(c1cncc(CNC(=O)C3CC3)c1)O2 (single isomer, unassigned) [Cpd 14A, 2-{5-[(Cyclopropanecarbonyl-amino)-methyl]-pyridin-3-yl}-2,3-dihydro-benzo[1,4]dioxine-5-carboxylic acid amide.]",12
4,"NC(=O)c1cccc2c1OCC(c1cncc(CNC(=O)C3CC3)c1)O2 (single isomer, unassigned) [Cpd 14B, 2-{5-[(Cyclopropanecarbonyl-amino)-methyl]-pyridin-3-yl}-2,3-dihydro-benzo[1,4]dioxine-5-carboxylic acid amide.]",> 30
5,"NC(=O)c1cccc2c1OCC(c1cncc(CN3CCOCC3=O)c1)O2 (single isomer, unassigned) [Cpd 15A, 2-[5-(3-Oxo-morpholin-4-ylmethyl)-pyridin-3-yl]-2,3-dihydro-benzo[1,4]dioxine-5-carboxylic acid amide]",15
6,"NC(=O)c1cccc2c1OCC(c1cncc(CN3CCOCC3=O)c1)O2 (single isomer, unassigned) [Cpd 15B, 2-[5-(3-Oxo-morpholin-4-ylmethyl)-pyridin-3-yl]-2,3-dihydro-benzo[1,4]dioxine-5-carboxylic acid amide]",> 30
7,"NC(=O)c1cccc2c1OCC(c1cncc(-c3ccc(S(N)(=O)=O)cc3)c1)O2 (single isomer, unassigned) [Cpd 16A, 2-[5-(4-Sulfamoyl-phenyl)-pyridin-3-yl]-2,3-dihydro-benzo[1,4]dioxine-5-carboxylic acid amide]",5.2
8,"NC(=O)c1cccc2c1OCC(c1cncc(-c3ccc(S(N)(=O)=O)cc3)c1)O2 (single isomer, unassigned) [Cpd 16B, 2-[5-(4-Sulfamoyl-phenyl)-pyridin-3-yl]-2,3-dihydro-benzo[1,4]dioxine-5-carboxylic acid amide]",0.054
9,"CC(=O)N1CC[C@H](Oc2cncc(C3COc4c(cccc4C(N)=O)O3)c2)C1 (single isomer, unassigned) [Cpd 17A]",> 30
10,"CC(=O)N1CC[C@H](Oc2cncc(C3COc4c(cccc4C(N)=O)O3)c2)C1 (single isomer, unassigned) [Cpd 17B]",18
11,"CC(=O)N1CC[C@@H](Oc2cncc(C3COc4c(cccc4C(N)=O)O3)c2)C1 (single isomer, unassigned) [Cpd 18A]",16
12,"CC(=O)N1CC[C@@H](Oc2cncc(C3COc4c(cccc4C(N)=O)O3)c2)C1 (single isomer, unassigned) [Cpd 18B]",1.1
13,"CC(=O)N1CC(Oc2cncc(C3COc4c(cccc4C(N)=O)O3)c2)C1 (single isomer, unassigned) [Cpd 19A, 2-[5-(1-Acetyl-azetidin-3-yloxy)-pyridin-3-yl]-2,3-dihydro-benzo[1,4]dioxine-5-carboxylic acid amide]",> 30
14,"CC(=O)N1CC(Oc2cncc(C3COc4c(cccc4C(N)=O)O3)c2)C1 (single isomer, unassigned) [Cpd 19B, 2-[5-(1-Acetyl-azetidin-3-yloxy)-pyridin-3-yl]-2,3-dihydro-benzo[1,4]dioxine-5-carboxylic acid amide]",24
15,"NC(=O)c1cccc2c1OCC(c1cncc(CO)c1)O2 (single isomer, unassigned) [Cpd 20A, 2-(5-Hydroxymethyl-pyridin-3-yl)-2,3-dihydro-benzo[1,4]dioxine-5-carboxylic acid amide]",8.2
16,"NC(=O)c1cccc2c1OCC(c1cncc(CO)c1)O2 (single isomer, unassigned) [Cpd 20B, 2-(5-Hydroxymethyl-pyridin-3-yl)-2,3-dihydro-benzo[1,4]dioxine-5-carboxylic acid amide]",6.8
17,"Cc1c(F)cncc1C1COc2c(cccc2C(N)=O)O1 (single isomer, unassigned) [Cpd 21A, 2-(5-Fluoro-4-methyl-pyridin-3-yl)-2,3-dihydro-benzo[1,4]dioxine-5-carboxylic acid amide]",2.6
18,"Cc1c(F)cncc1C1COc2c(cccc2C(N)=O)O1 (single isomer, unassigned) [Cpd 21B, 2-(5-Fluoro-4-methyl-pyridin-3-yl)-2,3-dihydro-benzo[1,4]dioxine-5-carboxylic acid amide]",5.3
19,"NC(=O)c1cccc2c1OCC(c1cncc(C(F)F)c1)O2 (single isomer, unassigned) [Cpd 22A, 2-(5-Difluoromethyl-pyridin-3-yl)-2,3-dihydro-benzo[1,4]dioxlne-5-carboxylic acid amide]",2
20,"NC(=O)c1cccc2c1OCC(c1cncc(C(F)F)c1)O2 (single isomer, unassigned) [Cpd 22B, 2-(5-Difluoromethyl-pyridin-3-yl)-2,3-dihydro-benzo[1,4]dioxlne-5-carboxylic acid amide]",2.3
21,"Cc1ccncc1C1COc2c(cccc2C(N)=O)O1 (single isomer, unassigned) [Cpd 23A, 2-(4-Methyl-pyridin-3-yl)-2,3-dihydro-benzo[1,4]dioxine-5-carboxylic acid amide]",1.4
22,"Cc1ccncc1C1COc2c(cccc2C(N)=O)O1 (single isomer, unassigned) [Cpd 23B, 2-(4-Methyl-pyridin-3-yl)-2,3-dihydro-benzo[1,4]dioxine-5-carboxylic acid amide]",2
23,"CN(Cc1cncc(C2COc3c(cccc3C(N)=O)O2)c1)C(=O)C1CC1 (single isomer, unassigned) [Cpd 24A, 2-{5-[(Cyclopropanecarbonyl-methyl-amino)-methyl]-pyridin-3-yl}-2,3-dihydro-benzo[1,4]dioxine-5-carboxylic acid amide]",7
24,"CN(Cc1cncc(C2COc3c(cccc3C(N)=O)O2)c1)C(=O)C1CC1 (single isomer, unassigned) [Cpd 24B, 2-{5-[(Cyclopropanecarbonyl-methyl-amino)-methyl]-pyridin-3-yl}-2,3-dihydro-benzo[1,4]dioxine-5-carboxylic acid amide]",25
25,"CN(C)C(=O)COCc1cncc(C2COc3c(cccc3C(N)=O)O2)c1 (single isomer, unassigned) [Cpd 25A, 2-(5-Dimethylcarbamoylmethoxymethyl-pyridin-3-yl)-2,3-dihydro-benzo[1,4]dioxine-5-carboxylic acid amide]",> 100
26,"CN(C)C(=O)COCc1cncc(C2COc3c(cccc3C(N)=O)O2)c1 (single isomer, unassigned) [Cpd 25B, 2-(5-Dimethylcarbamoylmethoxymethyl-pyridin-3-yl)-2,3-dihydro-benzo[1,4]dioxine-5-carboxylic acid amide]",15
27,"NC(=O)c1cccc2c1OCC(c1cncc(C3(O)CCC3)c1)O2 (single isomer, unassigned) [Cpd 26A, 2-[5-(1-Hydroxy-cyclobutyl)-pyridin-3-yl]-2,3-dihydro-benzo[1,4]dioxine-5-carboxylic acid amide]",1.8
